Reference: patent publication US20250236608A1, “EGFR INHIBITORS” (Blueprint Medicines Corporation, priority 2022, published 2025)
Counter-ions that a name gives are not always drawn.

What was measured:
[1] = target: EGFR L858R (Homo sapiens (Human), UniProt P00533, L858R); assay: Biochemical EGFR inhibition assay, EGFR L858R; conditions: Caliper mobility shift; 1.0 mM ATP or ATP Km; read-out: Enz EGFR_L858R IC50
[2] = target: EGFR (d746-750) (Homo sapiens (Human), UniProt P00533, DEL746-750); assay: Biochemical EGFR inhibition assay, EGFR (d746-750); conditions: Caliper mobility shift; 1.0 mM ATP or ATP Km; read-out: Enz EGFR_Exon19-del746-750 IC50
EGFR (d746-750), sequence (P00533 other isoform, or with tags, fused parts or gaps del 1-694/del 746-750 limits assumed): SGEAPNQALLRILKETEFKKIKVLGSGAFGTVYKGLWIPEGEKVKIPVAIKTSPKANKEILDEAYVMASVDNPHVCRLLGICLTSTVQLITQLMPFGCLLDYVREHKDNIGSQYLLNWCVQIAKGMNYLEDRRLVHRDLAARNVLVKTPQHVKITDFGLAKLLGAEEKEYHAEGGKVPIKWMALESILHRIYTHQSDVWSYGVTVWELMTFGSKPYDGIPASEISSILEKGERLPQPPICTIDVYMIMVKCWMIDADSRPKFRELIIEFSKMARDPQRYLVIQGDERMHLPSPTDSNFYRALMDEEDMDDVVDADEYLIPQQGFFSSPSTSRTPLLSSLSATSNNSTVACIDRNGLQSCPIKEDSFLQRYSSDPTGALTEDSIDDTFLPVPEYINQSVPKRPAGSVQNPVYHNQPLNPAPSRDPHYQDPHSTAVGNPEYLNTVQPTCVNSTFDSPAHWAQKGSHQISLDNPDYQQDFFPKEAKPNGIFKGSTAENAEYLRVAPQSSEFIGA

[3] = target: pEGFR (Tyr1068) in PC-9 cells (Ex19Del) (Homo sapiens (Human), UniProt P00533, DEL746-750); assay: PC-9 pEGFR AlphaLISA assay; type: cell-based; conditions: 4 hours incubation, p-EGFR (Tyr1068) AlphaLISA, read-out: Ext pEGFR_PC-9 Ex19Del IC50
pEGFR (Tyr1068) in PC-9 cells (Ex19Del), sequence (P00533 other isoform, or with tags, fused parts or gaps del 746-750): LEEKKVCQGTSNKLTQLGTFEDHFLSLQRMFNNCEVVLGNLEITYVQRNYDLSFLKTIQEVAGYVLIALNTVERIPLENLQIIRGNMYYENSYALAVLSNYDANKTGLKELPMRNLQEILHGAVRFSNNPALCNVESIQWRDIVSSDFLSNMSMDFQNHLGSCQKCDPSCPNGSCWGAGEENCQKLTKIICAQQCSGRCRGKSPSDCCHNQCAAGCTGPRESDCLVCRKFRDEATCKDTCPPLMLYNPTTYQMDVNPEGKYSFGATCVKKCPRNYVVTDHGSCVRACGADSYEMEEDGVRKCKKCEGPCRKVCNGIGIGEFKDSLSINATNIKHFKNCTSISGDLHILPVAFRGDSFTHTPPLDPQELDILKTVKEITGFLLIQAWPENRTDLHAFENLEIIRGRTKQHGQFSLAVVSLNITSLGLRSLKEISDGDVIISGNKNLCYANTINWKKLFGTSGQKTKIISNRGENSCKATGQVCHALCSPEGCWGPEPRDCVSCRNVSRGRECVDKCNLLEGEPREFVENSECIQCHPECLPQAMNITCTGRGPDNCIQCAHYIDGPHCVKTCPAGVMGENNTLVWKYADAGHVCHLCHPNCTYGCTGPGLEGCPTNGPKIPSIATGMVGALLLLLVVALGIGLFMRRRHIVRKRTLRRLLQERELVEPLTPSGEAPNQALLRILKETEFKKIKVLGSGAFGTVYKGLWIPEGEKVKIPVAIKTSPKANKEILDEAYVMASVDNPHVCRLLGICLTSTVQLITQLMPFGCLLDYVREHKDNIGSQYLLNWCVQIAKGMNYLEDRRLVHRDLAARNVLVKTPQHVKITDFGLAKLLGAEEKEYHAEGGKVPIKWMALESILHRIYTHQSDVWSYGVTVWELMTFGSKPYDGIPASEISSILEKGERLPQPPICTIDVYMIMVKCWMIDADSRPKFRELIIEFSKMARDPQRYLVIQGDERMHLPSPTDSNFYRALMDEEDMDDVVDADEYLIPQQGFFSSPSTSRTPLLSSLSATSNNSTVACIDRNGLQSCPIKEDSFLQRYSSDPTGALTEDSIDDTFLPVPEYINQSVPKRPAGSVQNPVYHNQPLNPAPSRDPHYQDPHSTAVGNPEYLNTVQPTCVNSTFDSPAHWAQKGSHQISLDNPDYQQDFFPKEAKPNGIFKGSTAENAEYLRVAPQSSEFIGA
Method in brief: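 Compounds are added in ten 4-fold dilutions to adherent cells grown in serum-containing (10% FBS) phenol-free DMEM and left for 4 hours at 37° C. Phosphorylated receptor in lysates is quantified by bead-based AlphaLISA. IC50 values derive from inhibition plotted against log dose.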

EGFR L858R, sequence (P00533 25-1210 L858R): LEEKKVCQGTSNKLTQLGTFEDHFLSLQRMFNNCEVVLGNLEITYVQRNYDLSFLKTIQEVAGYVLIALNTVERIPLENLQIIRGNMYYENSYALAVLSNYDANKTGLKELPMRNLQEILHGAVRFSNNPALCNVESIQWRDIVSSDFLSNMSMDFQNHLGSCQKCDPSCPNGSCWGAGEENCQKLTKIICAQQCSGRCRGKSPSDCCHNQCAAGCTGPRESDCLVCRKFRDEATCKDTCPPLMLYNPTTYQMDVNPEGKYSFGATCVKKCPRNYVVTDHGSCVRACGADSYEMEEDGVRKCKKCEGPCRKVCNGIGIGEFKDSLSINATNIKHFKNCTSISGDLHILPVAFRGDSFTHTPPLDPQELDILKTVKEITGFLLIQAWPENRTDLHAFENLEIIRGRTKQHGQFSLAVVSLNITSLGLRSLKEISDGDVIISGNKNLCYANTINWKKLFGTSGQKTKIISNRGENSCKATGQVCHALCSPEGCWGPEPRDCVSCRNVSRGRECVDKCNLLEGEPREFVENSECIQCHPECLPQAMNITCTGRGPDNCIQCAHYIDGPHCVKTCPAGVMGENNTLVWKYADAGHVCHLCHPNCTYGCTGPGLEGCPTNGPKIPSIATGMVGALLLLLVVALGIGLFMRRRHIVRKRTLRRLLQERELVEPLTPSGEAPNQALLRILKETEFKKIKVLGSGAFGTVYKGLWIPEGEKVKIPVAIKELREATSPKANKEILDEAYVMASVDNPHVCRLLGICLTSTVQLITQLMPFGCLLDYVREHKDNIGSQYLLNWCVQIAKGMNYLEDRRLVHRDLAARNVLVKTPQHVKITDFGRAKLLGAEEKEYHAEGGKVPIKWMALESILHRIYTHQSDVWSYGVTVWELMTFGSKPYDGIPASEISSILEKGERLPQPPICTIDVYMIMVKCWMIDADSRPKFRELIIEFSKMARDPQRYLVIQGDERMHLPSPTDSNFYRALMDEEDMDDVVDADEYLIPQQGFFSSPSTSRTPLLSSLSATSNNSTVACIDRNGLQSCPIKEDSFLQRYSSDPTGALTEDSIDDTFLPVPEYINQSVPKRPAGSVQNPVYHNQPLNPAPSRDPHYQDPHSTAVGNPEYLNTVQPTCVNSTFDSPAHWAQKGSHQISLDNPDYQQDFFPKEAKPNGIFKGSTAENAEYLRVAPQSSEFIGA

Row | Structure (SMILES) | IC50 [1] [nM] | IC50 [2] [nM] | IC50 [3] [nM]
1 | COc1cc2ncnc(-c3cn(C)nc3-c3ccccc3)c2cc1-c1cnn(CCN(C)C)c1 [Example 233, 2-(4-(7-methoxy-4-(1-methyl-3-phenyl-1H-pyrazol-4-yl)quinazolin-6-yl)-1H-pyrazol-1-yl)-N,N-dimethylethan-1-amine] | 2.9 | 1.7 | 2.5
2 | COc1cc2ncnc(-c3cn(C)nc3-c3ccccc3)c2cc1NC(=O)[C@@H]1CCN(C)C[C@H]1F [Example 284, (3S,4S)-3-fluoro-N-(7-methoxy-4-(1-methyl-3-phenyl-1H-pyrazol-4-yl)quinazolin-6-yl)-1-methylpiperidine-4-carboxamide] | 8.7 | 4.7 | 18.7
3 | COc1cc2ncnc(-c3cn(C)nc3-c3ccccc3)c2nc1O[C@H](C)c1nnnn1C [Example 46, (R)-7-methoxy-6-(1-(1-methyl-1H-tetrazol-5-yl)ethoxy)-4-(1-methyl-3-phenyl-1H-pyrazol-4-yl)pyrido[3,2-d]pyrimidine] | 4.4 | 1.9 | 11.7
4 | COc1cc2ncnc(-c3cn(C)nc3-c3ccccc3F)c2nc1NC(=O)C1CC1 [Example 356, N-(4-(3-(2-fluorophenyl)-1-methyl-1H-pyrazol-4-yl)-7-methoxypyrido[3,2-d]pyrimidin-6-yl)cyclopropanecarboxamide] | 1.9 | 1.1 | 1.2
5 | CCOc1cc2ncnc(-c3cn(CC)nc3-c3ccccc3)c2cc1N1CCOCC1 [Example 170, 4-(7-ethoxy-4-(1-ethyl-3-phenyl-1H-pyrazol-4-yl)quinazolin-6-yl)morpholine] | 2 | 0.9 | 1.2
6 | COc1cc2ncnc(-c3cn(C)nc3-c3ccccc3)c2cc1OC1CCOC1 (stereo not drawn) [Example 11, 7-methoxy-4-(1-methyl-3-phenyl-1H-pyrazol-4-yl)-6-((tetrahydrofuran-3-yl)oxy)quinazoline] | 2.9 | 2.4 | 5.1
7 | COc1cc2ncnc(-c3cn(C)nc3-c3ccccc3)c2cc1N1CC2(COC2)C1 [Example 161, 6-(7-methoxy-4-(1-methyl-3-phenyl-1H-pyrazol-4-yl)quinazolin-6-yl)-2-oxa-6-azaspiro[3.3]heptane] | 4.6 | 2.5 | 8.1
8 | CCN1CCN(C(=O)Oc2cc3c(-c4cn(C)nc4-c4ccccc4)ncnc3cc2OC)[C@@H](C)C1 [Example 75, 7-methoxy-4-(1-methyl-3-phenyl-1H-pyrazol-4-yl)quinazolin-6-yl (S)-4-ethyl-2-methylpiperazine-1-carboxylate] | 3.6 | 2.2 | 3.6
9 | COc1cc2ncnc(-c3cn(C)nc3-c3ccccc3)c2nc1NC(=O)c1ccc(C2CC2)nc1 [Example 357, 6-cyclopropyl-N-(7-methoxy-4-(1-methyl-3-phenyl-1H-pyrazol-4-yl)pyrido[3,2-d]pyrimidin-6-yl)nicotinamide] | 2.2 | 1.1 | 4.4
10 | CCOc1cc2ncnc(-c3cn(C4CC4)nc3-c3ccccc3)c2cc1[C@H](C)O (single isomer, unassigned) [Example 112, (S)-1-(4-(1-cyclopropyl-3-phenyl-1H-pyrazol-4-yl)-7-ethoxyquinazolin-6-yl)ethan-1-ol or (R)-1-(4-(1-cyclopropyl-3-phenyl-1H-pyrazol-4-yl)-7-ethoxyquinazolin-6-yl)ethan-1-ol] | 1.9 | 1.2 | 3.8
11 | COc1cc2ncnc(-c3cn(C)nc3-c3ccccc3)c2cc1NC(=O)[C@@H]1CCN(C)C[C@H]1F (racemic) [Example 339, trans-rac-(3R,4R)-3-fluoro-N-(7-methoxy-4-(1-methyl-3-phenyl-1H-pyrazol-4-yl)quinazolin-6-yl)-1-methylpiperidine-4-carboxamide trifluoroacetate] | 1.7 | 1 | 0.8
